Assay results published in ChEMBL document CHEMBL5291721, “A preclinical secondary pharmacology resource illuminates target-adverse drug reaction associations of marketed drugs” (Nat Commun, 2023).

How the values were obtained:
Androgen receptor = molecular target: T1, Androgen receptor (Rattus norvegicus, UniProt P15207); format: functional
T1 sequence (P15207 whole entry): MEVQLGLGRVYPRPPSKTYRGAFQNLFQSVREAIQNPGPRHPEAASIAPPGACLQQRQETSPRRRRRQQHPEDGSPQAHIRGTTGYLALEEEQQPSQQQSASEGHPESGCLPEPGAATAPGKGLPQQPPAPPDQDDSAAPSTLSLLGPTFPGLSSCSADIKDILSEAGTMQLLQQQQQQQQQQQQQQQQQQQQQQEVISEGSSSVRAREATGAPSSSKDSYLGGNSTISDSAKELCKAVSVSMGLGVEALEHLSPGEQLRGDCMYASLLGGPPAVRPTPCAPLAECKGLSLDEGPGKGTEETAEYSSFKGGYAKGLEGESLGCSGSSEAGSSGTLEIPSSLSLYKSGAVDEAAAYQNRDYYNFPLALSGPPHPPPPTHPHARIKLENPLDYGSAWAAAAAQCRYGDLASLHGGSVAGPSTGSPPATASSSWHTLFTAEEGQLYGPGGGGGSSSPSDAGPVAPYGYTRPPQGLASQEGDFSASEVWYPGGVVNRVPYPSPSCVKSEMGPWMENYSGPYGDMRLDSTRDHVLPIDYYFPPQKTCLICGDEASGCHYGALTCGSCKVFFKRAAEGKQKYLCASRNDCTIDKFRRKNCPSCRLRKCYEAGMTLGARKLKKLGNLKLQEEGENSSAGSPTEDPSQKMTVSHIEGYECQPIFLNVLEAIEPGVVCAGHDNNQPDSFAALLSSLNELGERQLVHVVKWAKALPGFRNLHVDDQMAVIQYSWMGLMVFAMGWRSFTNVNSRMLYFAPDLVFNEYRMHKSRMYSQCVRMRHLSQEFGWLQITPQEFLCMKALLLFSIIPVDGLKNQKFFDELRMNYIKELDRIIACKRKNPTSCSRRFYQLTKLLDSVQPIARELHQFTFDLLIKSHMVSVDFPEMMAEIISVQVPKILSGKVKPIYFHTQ

[1] = molecular target: T2, Neuropeptide Y receptor type 2 (Homo sapiens, UniProt P49146)
T2 sequence (P49146 whole entry): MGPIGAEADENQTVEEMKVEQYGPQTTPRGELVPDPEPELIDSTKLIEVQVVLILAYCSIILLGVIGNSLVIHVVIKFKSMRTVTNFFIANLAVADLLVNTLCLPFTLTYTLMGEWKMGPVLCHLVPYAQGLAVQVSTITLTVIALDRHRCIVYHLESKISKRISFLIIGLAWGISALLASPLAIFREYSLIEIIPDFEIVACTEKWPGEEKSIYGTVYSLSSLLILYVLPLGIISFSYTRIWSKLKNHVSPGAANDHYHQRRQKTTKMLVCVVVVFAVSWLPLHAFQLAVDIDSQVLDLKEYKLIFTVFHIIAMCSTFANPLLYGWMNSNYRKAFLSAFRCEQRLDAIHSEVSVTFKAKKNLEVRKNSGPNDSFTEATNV

[2] = molecular target: Sodium channel protein type 5 subunit alpha (Homo sapiens, UniProt Q14524); format: functional, cell-based
Sequence of Sodium channel protein type 5 subunit alpha (Q14524 whole entry): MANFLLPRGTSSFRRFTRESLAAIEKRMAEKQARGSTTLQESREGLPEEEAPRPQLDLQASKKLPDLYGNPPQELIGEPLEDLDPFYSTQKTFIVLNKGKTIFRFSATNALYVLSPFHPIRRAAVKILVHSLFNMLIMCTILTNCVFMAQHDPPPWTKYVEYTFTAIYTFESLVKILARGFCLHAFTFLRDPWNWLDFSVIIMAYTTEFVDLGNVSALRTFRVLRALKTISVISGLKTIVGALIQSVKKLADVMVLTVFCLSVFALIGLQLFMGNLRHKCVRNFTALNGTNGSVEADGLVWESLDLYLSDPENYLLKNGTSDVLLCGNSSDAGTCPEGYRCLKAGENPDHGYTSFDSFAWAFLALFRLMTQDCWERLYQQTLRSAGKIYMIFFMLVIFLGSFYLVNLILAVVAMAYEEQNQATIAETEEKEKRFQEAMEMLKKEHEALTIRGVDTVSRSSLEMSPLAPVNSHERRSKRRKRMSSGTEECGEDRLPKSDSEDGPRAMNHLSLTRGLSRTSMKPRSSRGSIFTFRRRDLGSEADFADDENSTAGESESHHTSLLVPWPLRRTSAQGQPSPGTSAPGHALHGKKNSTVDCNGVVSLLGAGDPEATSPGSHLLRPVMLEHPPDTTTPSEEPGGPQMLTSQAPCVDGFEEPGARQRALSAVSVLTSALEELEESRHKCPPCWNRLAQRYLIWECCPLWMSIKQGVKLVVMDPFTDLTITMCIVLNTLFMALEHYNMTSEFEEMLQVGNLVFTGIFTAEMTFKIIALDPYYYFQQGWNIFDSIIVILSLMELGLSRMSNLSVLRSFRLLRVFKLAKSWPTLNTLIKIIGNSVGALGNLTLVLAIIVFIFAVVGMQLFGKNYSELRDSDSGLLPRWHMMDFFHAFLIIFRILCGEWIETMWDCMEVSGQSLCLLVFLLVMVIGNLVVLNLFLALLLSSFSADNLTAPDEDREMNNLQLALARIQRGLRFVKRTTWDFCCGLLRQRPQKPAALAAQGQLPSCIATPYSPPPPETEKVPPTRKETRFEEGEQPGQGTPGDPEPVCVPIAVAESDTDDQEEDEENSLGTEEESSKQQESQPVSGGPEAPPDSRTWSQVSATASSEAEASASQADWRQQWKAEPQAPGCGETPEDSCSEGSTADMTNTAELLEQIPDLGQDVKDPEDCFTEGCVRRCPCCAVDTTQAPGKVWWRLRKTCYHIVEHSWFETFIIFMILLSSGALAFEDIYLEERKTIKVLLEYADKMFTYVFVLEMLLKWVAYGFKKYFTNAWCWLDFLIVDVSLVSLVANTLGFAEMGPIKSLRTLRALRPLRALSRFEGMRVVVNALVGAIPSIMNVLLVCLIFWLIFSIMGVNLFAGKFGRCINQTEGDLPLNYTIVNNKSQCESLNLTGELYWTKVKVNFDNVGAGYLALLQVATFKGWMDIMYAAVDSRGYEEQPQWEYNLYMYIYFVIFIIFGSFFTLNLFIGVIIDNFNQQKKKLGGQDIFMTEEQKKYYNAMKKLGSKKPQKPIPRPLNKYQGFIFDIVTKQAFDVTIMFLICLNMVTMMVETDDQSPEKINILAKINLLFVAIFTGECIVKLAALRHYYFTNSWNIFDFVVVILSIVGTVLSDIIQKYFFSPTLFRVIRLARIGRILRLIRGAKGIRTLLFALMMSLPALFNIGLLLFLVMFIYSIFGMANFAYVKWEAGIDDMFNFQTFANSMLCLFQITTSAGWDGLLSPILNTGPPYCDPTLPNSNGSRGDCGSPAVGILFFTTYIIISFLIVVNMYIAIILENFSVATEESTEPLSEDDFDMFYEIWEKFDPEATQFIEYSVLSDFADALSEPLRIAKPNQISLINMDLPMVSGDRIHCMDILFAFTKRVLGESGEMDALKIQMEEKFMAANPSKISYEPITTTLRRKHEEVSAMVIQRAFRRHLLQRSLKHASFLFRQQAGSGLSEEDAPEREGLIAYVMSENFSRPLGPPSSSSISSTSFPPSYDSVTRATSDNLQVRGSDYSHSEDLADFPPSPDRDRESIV

Melanocortin receptor 4 = Melanocortin receptor 4 (Homo sapiens, UniProt P32245)
Sequence of Melanocortin receptor 4 (P32245 whole entry): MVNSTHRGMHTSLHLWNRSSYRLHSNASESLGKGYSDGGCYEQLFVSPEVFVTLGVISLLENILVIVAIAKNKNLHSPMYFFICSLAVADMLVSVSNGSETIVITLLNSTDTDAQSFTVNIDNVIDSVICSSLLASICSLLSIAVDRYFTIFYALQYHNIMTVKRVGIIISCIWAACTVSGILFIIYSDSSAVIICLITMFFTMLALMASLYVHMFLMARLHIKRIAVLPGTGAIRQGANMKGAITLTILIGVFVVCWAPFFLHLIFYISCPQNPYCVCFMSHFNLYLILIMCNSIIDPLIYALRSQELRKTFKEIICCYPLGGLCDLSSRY

[3] = molecular target: T3, Endothelin receptor type B (Homo sapiens, UniProt P24530)
T3 sequence (P24530 whole entry): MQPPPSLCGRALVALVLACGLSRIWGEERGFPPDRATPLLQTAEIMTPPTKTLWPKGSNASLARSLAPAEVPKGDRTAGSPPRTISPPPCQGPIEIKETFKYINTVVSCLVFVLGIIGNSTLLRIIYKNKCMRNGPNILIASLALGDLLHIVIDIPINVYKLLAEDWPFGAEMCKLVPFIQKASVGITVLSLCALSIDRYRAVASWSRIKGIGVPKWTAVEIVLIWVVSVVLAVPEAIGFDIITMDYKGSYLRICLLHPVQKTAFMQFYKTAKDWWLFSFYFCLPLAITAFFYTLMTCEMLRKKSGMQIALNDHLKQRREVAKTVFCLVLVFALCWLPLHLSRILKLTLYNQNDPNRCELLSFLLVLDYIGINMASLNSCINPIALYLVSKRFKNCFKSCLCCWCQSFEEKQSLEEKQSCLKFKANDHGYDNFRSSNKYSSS

[4] = molecular target: 5-hydroxytryptamine receptor 2A (Homo sapiens, UniProt P28223); format: functional, cell-based
Sequence of 5-hydroxytryptamine receptor 2A (P28223 whole entry): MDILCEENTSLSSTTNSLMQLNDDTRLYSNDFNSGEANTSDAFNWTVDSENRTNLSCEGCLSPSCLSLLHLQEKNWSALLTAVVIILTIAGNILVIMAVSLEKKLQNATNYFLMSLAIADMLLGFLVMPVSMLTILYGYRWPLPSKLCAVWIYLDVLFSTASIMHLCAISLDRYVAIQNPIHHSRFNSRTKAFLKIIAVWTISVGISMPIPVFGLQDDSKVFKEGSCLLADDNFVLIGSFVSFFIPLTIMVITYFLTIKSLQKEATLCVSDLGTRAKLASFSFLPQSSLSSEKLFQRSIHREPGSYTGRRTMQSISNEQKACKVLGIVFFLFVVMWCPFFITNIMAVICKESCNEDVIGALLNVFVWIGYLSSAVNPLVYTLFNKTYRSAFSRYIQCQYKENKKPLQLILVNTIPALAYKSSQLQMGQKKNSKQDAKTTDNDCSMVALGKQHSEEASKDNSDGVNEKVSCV

[5] = molecular target: Muscarinic acetylcholine receptor M3 (Homo sapiens, UniProt P20309)
Sequence of Muscarinic acetylcholine receptor M3 (P20309 whole entry): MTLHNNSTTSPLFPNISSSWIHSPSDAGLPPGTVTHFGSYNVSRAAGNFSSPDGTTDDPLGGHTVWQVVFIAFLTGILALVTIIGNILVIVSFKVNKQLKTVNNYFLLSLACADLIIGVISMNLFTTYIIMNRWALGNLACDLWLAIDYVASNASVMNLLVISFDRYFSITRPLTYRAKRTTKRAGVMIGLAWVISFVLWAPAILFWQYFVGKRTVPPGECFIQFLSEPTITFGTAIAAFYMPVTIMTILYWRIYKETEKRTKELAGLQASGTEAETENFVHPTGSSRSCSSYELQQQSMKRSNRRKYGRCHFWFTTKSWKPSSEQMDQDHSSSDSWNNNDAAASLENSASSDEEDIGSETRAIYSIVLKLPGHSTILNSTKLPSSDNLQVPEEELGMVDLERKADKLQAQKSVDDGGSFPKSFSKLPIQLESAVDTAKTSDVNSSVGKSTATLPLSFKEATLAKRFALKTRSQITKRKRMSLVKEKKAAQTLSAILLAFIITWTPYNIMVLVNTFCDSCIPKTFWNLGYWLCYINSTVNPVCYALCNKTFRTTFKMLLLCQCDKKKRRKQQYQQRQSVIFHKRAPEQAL

Estrogen receptor = molecular target: T4, Estrogen receptor (Homo sapiens, UniProt P03372)
T4 sequence (P03372 whole entry): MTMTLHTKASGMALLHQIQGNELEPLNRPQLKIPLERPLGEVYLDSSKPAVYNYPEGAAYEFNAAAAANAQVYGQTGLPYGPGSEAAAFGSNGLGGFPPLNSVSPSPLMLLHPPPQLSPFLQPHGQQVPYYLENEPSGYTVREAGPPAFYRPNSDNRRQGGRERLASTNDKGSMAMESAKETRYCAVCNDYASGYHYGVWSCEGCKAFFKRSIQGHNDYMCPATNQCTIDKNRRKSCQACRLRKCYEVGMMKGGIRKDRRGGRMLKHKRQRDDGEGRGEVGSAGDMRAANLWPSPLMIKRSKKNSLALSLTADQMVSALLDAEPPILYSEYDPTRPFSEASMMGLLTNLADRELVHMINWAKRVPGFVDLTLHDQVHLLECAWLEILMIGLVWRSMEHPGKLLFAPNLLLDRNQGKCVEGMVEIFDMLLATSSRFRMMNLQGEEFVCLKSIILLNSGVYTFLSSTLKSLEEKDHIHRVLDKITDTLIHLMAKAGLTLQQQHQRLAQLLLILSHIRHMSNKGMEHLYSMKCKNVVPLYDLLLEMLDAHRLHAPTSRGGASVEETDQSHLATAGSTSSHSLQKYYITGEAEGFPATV
Note: assay procedure not described here.

Structure (SMILES)	AC50 (Androgen receptor) [µM]	AC50 [1] [µM]	AC50 [2] [µM]	AC50 (Melanocortin receptor 4) [µM]	AC50 [3] [µM]	AC50 [4] [µM]	AC50 [5] [µM]	AC50 (Estrogen receptor) [µM]
CC1(C)S[C@@H]2[C@H](NC(=O)[C@H](N)c3ccc(O)cc3)C(=O)N2[C@H]1C(=O)O [AMOXICILLIN]	> 30	> 30	> 30	> 30	> 30			
C[C@H]1Oc2cc(cnc2N)-c2c(nn(C)c2C#N)CN(C)C(=O)c2ccc(F)cc21 [LORLATINIB]	> 30		> 30			> 30	> 30	
CNC[C@H](O)c1cccc(O)c1 [PHENYLEPHRINE]		> 30	> 30	> 30	> 30	> 30	> 30	
O=C1NC(=O)C(c2ccccc2)(c2ccccc2)N1 [PHENYTOIN]		> 30	> 50	> 30	> 30			
O=C(Nc1c(Cl)cncc1Cl)c1ccc(OC(F)F)c(OCC2CC2)c1 [ROFLUMILAST]	> 30		> 50			> 30	> 30	> 30
CC(C)N(CCCCOCC(=O)NS(C)(=O)=O)c1cnc(-c2ccccc2)c(-c2ccccc2)n1 [SELEXIPAG]	> 30		45			16	> 30	> 30
